Structures are written as SMILES. pIC50: −log10 of the molar value.

This experiment addresses T1, human TLR7 (Homo sapiens, UniProt Q9NYK1).
T1 sequence (Q9NYK1 27-1049): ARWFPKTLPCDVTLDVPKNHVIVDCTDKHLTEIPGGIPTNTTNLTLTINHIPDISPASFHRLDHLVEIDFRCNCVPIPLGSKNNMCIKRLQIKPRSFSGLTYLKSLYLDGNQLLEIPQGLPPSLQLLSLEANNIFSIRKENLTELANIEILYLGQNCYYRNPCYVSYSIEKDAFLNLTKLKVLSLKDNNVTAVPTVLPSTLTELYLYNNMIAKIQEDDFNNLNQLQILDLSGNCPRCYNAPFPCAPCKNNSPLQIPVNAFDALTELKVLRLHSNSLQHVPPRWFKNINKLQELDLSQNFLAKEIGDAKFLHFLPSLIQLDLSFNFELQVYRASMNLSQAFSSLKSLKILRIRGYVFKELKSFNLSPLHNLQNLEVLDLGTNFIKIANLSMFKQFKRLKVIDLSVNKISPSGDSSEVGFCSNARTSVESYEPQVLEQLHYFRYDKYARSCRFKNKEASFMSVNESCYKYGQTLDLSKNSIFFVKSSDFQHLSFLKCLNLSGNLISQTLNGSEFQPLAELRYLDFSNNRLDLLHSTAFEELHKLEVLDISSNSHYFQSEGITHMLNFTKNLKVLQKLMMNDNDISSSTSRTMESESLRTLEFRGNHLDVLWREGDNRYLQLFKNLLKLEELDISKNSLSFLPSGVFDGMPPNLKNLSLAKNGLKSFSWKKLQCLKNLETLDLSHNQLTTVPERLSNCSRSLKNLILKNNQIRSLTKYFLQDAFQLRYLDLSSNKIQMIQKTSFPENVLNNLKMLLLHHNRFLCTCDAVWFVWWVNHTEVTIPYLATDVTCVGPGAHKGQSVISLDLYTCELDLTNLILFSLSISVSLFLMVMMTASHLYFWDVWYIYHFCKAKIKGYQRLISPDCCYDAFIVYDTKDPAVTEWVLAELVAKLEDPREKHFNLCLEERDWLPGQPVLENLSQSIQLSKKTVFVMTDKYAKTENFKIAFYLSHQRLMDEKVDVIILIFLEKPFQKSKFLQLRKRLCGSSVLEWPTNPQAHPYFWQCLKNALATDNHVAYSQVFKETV
Briefly: HEK293-Blue-hTLR-7 cells assay. The format is cell-based. As to conditions: HEK293-Blue-hTLR7 cells, R848 stimulation, 20 hrs, SEAP reporter; read-out: HEK/hTLR7 IC50. From the text: HEK293-Blue-hTLR-7 cells assay:
A stable HEK293-Blue-hTLR-7 cell line was purchased from InvivoGen (Cat. #: hkb-htlr7, San Diego, California, USA). These cells were originally designed for studying the stimulation of human TLR7 by monitoring the activation of NF-κB. A SEAP (secreted embryonic alkaline phosphatase) reporter gene was placed under the control of the IFN-β minimal promoter fused to five NF-κB and AP-1-binding sites. The SEAP was induced by activating NF-κB and AP-1 via stimulating HEK-Blue hTLR7 cells with TLR7 ligands. Therefore the reporter expression was declined by TLR7 antagonist under the stimulation of a ligand, such as R848 (Resiquimod), for incubation of 20 hrs. The cell culture supernatant SEAP reporter activity was determined using QUANTI-Blue™ kit (Cat. #: rep-qb1, Invivogen, San Diego, Ca, USA) at a wavelength of 640 nm, a detection medium that turns purple or blue in the presence of alkaline phosphatase.
HEK293-Blue-hTLR7 cells were incubated at a density of 250,000˜450,000 cells/mL in a volume of 170 μL in a 96-well plate in Dulbecco's Modified Eagle's medium (DMEM) containing 4.5 g/L glucose, 50 U/mL penicillin, […], […], 2 mM L-glutamine, 10% (v/v) heat-inactivated fetal bovine serum with addition of 20 μL test compound in a serial dilution in the presence of final DMSO at 1% and 10 μL of 20 uM R848 in above DMEM, perform incubation under 37° C. in a CO2 incubator for 20 hrs. Then 20 μL of the supernatant from each well was incubated with 180 μL Quanti-blue substrate solution at 37° C. for 2 hrs and the absorbance was read at 620˜655 nm using a spectrophotometer. The signaling pathway that TLR7 activation leads to downstream NF-κB activation has been widely accepted, and therefore similar reporter assay was modified for evaluating TLR7 antagonist.
On to `C[C@@H]1CN(c2ccc(C#N)n3ncc(F)c23)C[C@H](CN2CC3(C2)OCc2cc(N4CC5(CNC5)C4)ccc23)O1` [Example 12, 4-[(2S,6R)-2-[[6-(2,6-diazaspiro[3.3]heptan-2-yl)spiro[1H-isobenzofuran-3,3′-azetidine]-1′-yl]methyl]-6-methyl-morpholin-4-yl]-3-fluoro-pyrazolo[1,5-a]pyridine-7-carbonitrile], for which the pIC50 is 8.00.
In the case of `C[C@@H]1CN(c2ccc(C#N)n3ncc(F)c23)C[C@H](CN2CC3(C2)OCc2cc(N4CC5(CN(C)C5)C4)cnc23)O1` [Example 22, 3-fluoro-4-[(2R,6S)-2-methyl-6-[[3-(6-methyl-2,6-diazaspiro[3.3]heptan-2-yl)spiro[5H-furo[3,4-b]pyridine-7,3′-azetidine]-1′-yl]methyl]morpholin-4-yl]pyrazolo[1,5-a]pyridine-7-carbonitrile] it was 8.05.
Regarding `C[C@@H]1CN(c2ccc(C#N)n3ncc(F)c23)C[C@H](CN2CC3(C2)OCc2cc(N4CC5(CN(C)C5)C4)ccc23)O1` [Example 2, 3-fluoro-4-[(2R,6S)-2-methyl-6-[[6-(6-methyl-2,6-diazaspiro[3.3]heptan-2-yl)spiro[1H-isobenzofuran-3,3′-azetidine]-1′-yl]methyl]morpholin-4-yl]pyrazolo[1,5-a]pyridine-7-carbonitrile], the pIC50 is 8.00.
On to `[2H]c1ccc2c(N3C[C@H](CN4CC5(C4)OCc4cc(N6CC(N)C6)cnc45)O[C@H](C)C3)ccc(C#N)c2n1` [Example 20, 5-[(2S,6R)-2-[[3-(3-aminoazetidin-1-yl)spiro[5H-furo[3,4-b]pyridine-7,3′-azetidine]-1′-yl]methyl]-6-methyl-morpholin-4-yl]-2-deuterio-quinoline-8-carbonitrile], for which the pIC50 is 8.05.
Consider `C[C@@H]1CN(c2ccc(C#N)n3ncc(F)c23)C[C@H](CN2CC3(C2)OCc2cc(N4CC(N)C4)ccc23)O1` [Example 9, 4-[(2S,6R)-2-[[6-(3-aminoazetidin-1-yl)spiro[1H-isobenzofuran-3,3′-azetidine]-1′-yl]methyl]-6-methyl-morpholin-4-yl]-3-fluoro-pyrazolo[1,5-a]pyridine-7-carbonitrile], for which the pIC50 was 8.30.
In the case of `[2H]c1ccc2c(N3C[C@H](CN4CC5(C4)OCc4cc(N6C[C@H]7NCCO[C@@H]7C6)ncc45)O[C@H](C)C3)ccc(C#N)c2n1` [Example 28, 5-[(2S,6R)-2-[[6-[(4aR,7aR)-3,4,4a,5,7,7a-hexahydro-2H-pyrrolo[3,4-b][1,4]oxazin-6-yl]spiro[1H-furo[3,4-c]pyridine-3,3′-azetidine]-1′-yl]methyl]-6-methyl-morpholin-4-yl]-2-deuterio-quinoline-8-carbonitrile] it was 8.15.
With `C[C@@H]1CN(c2ccc(C#N)n3ncc(F)c23)C[C@H](CN2CC3(C2)OCc2cc(N4CC(C)(N)C4)ncc23)O1` [Example 24, 4-[(2S,6R)-2-[[6-(3-amino-3-methyl-azetidin-1-yl)spiro[1H-furo[3,4-c]pyridine-3,3′-azetidine]-1′-yl]methyl]-6-methyl-morpholin-4-yl]-3-fluoro-pyrazolo[1,5-a]pyridine-7-carbonitrile], the pIC50 was 7.80.
For the molecule `C[C@@H]1CN(c2ccc(C#N)n3nccc23)C[C@H](CN2CC3(C2)OCc2cc(N4CC(C)(N)C4)ncc23)O1` [Example 25, 4-[(2S,6R)-2-[[6-(3-amino-3-methyl-azetidin-1-yl)spiro[1H-furo[3,4-c]pyridine-3,3′-azetidine]-1′-yl]methyl]-6-methyl-morpholin-4-yl]pyrazolo[1,5-a]pyridine-7-carbonitrile], the pIC50 was 7.64.
In the case of `C[C@@H]1CN(c2ccc(C#N)n3ncc(F)c23)C[C@H](CN2CC3(C2)OCc2cc(N4CCNCC4)ccc23)O1` [Example 6, 3-fluoro-4-[(2R,6S)-2-methyl-6-[(6-piperazin-1-ylspiro[1H-isobenzofuran-3,3′-azetidine]-1′-yl)methyl]morpholin-4-yl]pyrazolo[1,5-a]pyridine-7-carbonitrile] it was 8.10.
Take `C[C@@H]1CN(c2ccc(C#N)n3nccc23)C[C@H](CN2CC3(C2)OCc2cc(N4CC(C)(N)C4)cnc23)O1` [Example 26, 4-[(2S,6R)-2-[[3-(3-amino-3-methyl-azetidin-1-yl)spiro[5H-furo[3,4-b]pyridine-7,3′-azetidine]-1′-yl]methyl]-6-methyl-morpholin-4-yl]pyrazolo[1,5-a]pyridine-7-carbonitrile]: the pIC50 is 7.62.
In the case of `C[C@@H]1CN(c2ccc(C#N)n3ncc(F)c23)C[C@H](CN2CC3(C2)OCc2cc(N[C@H]4CNC[C@H]4F)ccc23)O1` [Example 3, 3-fluoro-4-[(2S,6R)-2-[[6-[[(3S,4R)-4-fluoropyrrolidin-3-yl]amino]spiro[1H-isobenzofuran-3,3′-azetidine]-1′-yl]methyl]-6-methyl-morpholin-4-yl]pyrazolo[1,5-a]pyridine-7-carbonitrile] it was 7.70; in that of `C[C@@H]1CN(c2ccc(C#N)n3ncc(F)c23)C[C@H](CN2CC3(C2)OCc2cc(N4CC5(CNCCO5)C4)ccc23)O1` [Example 4, 3-fluoro-4-[(2R,6S)-2-methyl-6-[[6-(5-oxa-2,8-diazaspiro[3.5]nonan-2-yl)spiro[1H-isobenzofuran-3,3′-azetidine]-1′-yl]methyl]morpholin-4-yl]pyrazolo[1,5-a]pyridine-7-carbonitrile], 7.80; in that of `[2H]c1ccc2c(N3C[C@H](CN4CC5(C4)OCc4cc(N6C[C@H]7NCCO[C@@H]7C6)ccc45)O[C@H](C)C3)ccc(C#N)c2n1` [Example 17, 5-[(2S,6R)-2-[[6-[(4aR,7aR)-3,4,4a,5,7,7a-hexahydro-2H-pyrrolo[3,4-b][1,4]oxazin-6-yl]spiro[1H-isobenzofuran-3,3′-azetidine]-1′-yl]methyl]-6-methyl-morpholin-4-yl]-2-deuterio-quinoline-8-carbonitrile], 7.82.
As for `[2H]c1ccc2c(N3C[C@H](CN4CC5(C4)OCc4cc(N6C[C@@H](N)[C@H](OC)C6)cnc45)O[C@H](C)C3)ccc(C#N)c2n1` [Example 31, 5-[(2S,6R)-2-[[3-[(3R,4R)-3-amino-4-methoxy-pyrrolidin-1-yl]spiro[5H-furo[3,4-b]pyridine-7,3′-azetidine]-1′-yl]methyl]-6-methyl-morpholin-4-yl]-2-deuterio-quinoline-8-carbonitrile], the pIC50 is 8.15.
In the case of `[2H]c1ccc2c(N3C[C@H](CN4CC5(C4)OCc4cc(N6CCNCC6)ccc45)O[C@H](C)C3)ccc(C#N)c2n1` [Example 18, 2-deuterio-5-[(2R,6S)-2-methyl-6-[(6-piperazin-1-ylspiro[1H-isobenzofuran-3,3′-azetidine]-1′-yl)methyl]morpholin-4-yl]quinoline-8-carbonitrile] it was 8.15.
Turning to `[2H]c1ccc2c(N3C[C@H](CN4CC5(C4)OCc4cc(N6CC(C)(N)C6)cnc45)O[C@H](C)C3)ccc(C#N)c2n1` [Example 21, 5-[(2S,6R)-2-[[3-(3-amino-3-methyl-azetidin-1-yl)spiro[5H-furo[3,4-b]pyridine-7,3′-azetidine]-1′-yl]methyl]-6-methyl-morpholin-4-yl]-2-deuterio-quinoline-8-carbonitrile], the pIC50 is 8.15.

Values taken from US12421252B2, “Spiro (isobenzofuranazetidine) compounds for the treatment of autoimmune disease” (Hoffmann-La Roche Inc., priority 2020, dated 2025).
